The results in this text go back to patent publication US20080262080A1, “Allergy Suppressive Agent” (KYUSHU UNIVERSITY, NATIONAL UNIVERSITY CORPORATION, priority 2004, published 2008).

For one assay, the system named is FcεRI α- and γ-chains. In words: Expression levels of the proteins constituting FcεRI (α- and γ-chains) in KU812 cells, immunoprecipitation and blotting. It is filed as cell-based, human. The note with it: serum-free, 6 hours, β-actin control. How it is done:
The expression of each of the FcεRI α- and γ-chains was detected by collecting cells having been incubated by adding chrysin, lysing the cells, conducting immunoprecipitation, subjecting the immunoprecipitate to DS-PAGE and then blotting. β-Actin was employed as a control.
KU812 cells (1×10^6 cells/mL) were incubated under serum-free conditions in RPMI 1640 medium, to which chrysin had been added, for 6 hours. After incubating, the cells were washed with PBS once and then lysed by shaking together with Lysis buffer (composition: 50 mM Tris-HCl pH 7.5, 1% Triton X-100, 150 mM NACl, 1 mM EDTA, 50 mM NaF, 30 mM Na4P2O7, 1 mM PMSF, 2 μg/mL aprotinin, 1 mM pervandate) at 4° C. for 30 min. Subsequently, the mixture was centrifuged at 12,000×g for 10 min at 4° C. to precipitate insoluble matters. The supernatant was collected and proteins were quantified. The samples were diluted with Lysis buffer so that all of them had the same protein concentration, thereby giving lysate samples.
Protein A Sepharose beads (Amersham Pharmacia Biotech) were shaken in Lysis buffer (composition: 50 mM Tris-HCl pH 7.5, 150 mM NACl, 1% Triton X-100, 1 mM EDTA, 50 mM NaF, 30 mM Na4P2O7, 1 mM PMSF, 2 μg/mL aprotinin), to which CRA-1 antibody had been added to give a final concentration of 1 μg/mL, for 2 to 4 hours at 4° C. so as to allow the beads to adsorb CRA-1 antibody. […]

Assay [1] concerns STAT6. The assay is described as follows: Detection of phosphorylated STAT6 in IL-4-treated DND39 cells. The assay is classed as cell-based, human. The conditions noted are these: IL-4 (100 U/ml), chrysin at various concentrations, 30 min. As for the experimental part: DND39 cells were treated with IL-4 (100 U/ml) and chrysin at various concentrations and then lysed. Each cell lysate was subjected to immunoprecipitation using anti-STAT6 antibody. The immunoprecipitate was subjected to 8% SDS-PAGE and transferred onto a nitrocellulose membrane and phosphorylated STAT6 was detected. The density of DND39 cells was adjusted to 2×10^6 cells/mL and IL-4 (100 U/mL) and chrysin at each concentration were added thereto. Then, the cells were lysed by treating for 30 min. The cell lysate was subjected to immunoprecipitation using anti-STAT6 antibody. The immunoprecipitate was subjected to 8% SDS-PAGE and blotted onto a nitrocellulose membrane. Then phosphorylated STAT6 was detected using anti-tyrosine phosphorylation antibody (PY20).

The test system of assay [2] is STAT6. The assay is described as follows: Chrysin intake test: STAT6 phosphorylation in spleen lymphocytes of orally dosed mice. The assay is classed as in vivo, mouse. As for the experimental part: Spleen lymphocytes collected from mice, to which chrysin had been orally administered continuously, were stimulated with LPS or LPS+IL-4 (500 U/ml) and phosphorylated STAT6 was detected by immunoprecipitation using anti-STAT6 antibody and immunoblotting. 200 μL portions of 0.4 mg/mL chrysin and 200 μL portions of 1% DMSO in 1% EtOH were administered respectively to groups (n=8) in accordance with the following administration schedule. To male C57BL/6N mice aged 5 weeks that had been preliminarily fed (MF feed) for 1 week, the samples were administered once every 2 days for 2 weeks (7 times in total; total dose: 0.56 mg (28 mg/kg) per animal). After sacrificing, spleen lymphocytes were collected from the spleen of each mouse, adjusted to a density of 2×10^7 cells/mL and stimulated with 25 μg/mL of lipopolysaccharide (LPS) or LPS+IL-4 (500 U/mL) for 30 min. Then, the cells were lysed and phosphorylated STAT6 was detected by immunoprecipitation with the use of anti-STAT6 antibody and immunoblotting to thereby examine the response to IL-4.

With `O=c1cc(-c2ccccc2)oc2cc(O)cc(O)c12` [Chrysin, 5,7-dihydroxyflavone], the “expression of the proteins constituting FcεRI (α- and γ-chains)” value in the assay with FcεRI α- and γ-chains is “suppressive effect”. Besides, in the assay with STAT6 [1], the “phosphorylation of STAT6” value is recorded as “suppressed”. Also, the “phosphorylation of STAT6 by the stimulus with LPS+IL-4” value with STAT6 [2] (C57BL/6N mice, oral chrysin once every 2 days for 2 weeks, total 28 mg/kg, spleen lymphocytes, LPS+IL-4 (500 U/mL) 30 min, vs control system) is listed as “suppressed”. Besides, in the assay on STAT6 [2] (male adults having an average body weight of 60 kg (28 mg/kg)), the “oral dose at which chrysin is efficacious as an antiallergic agent” value is ≥ 1.68 g/day.
